In article PMC7835950 (Frontiers in Chemistry, 2021):
Where two headings read alike, the source gives them in different places.

Tests used:
[1] = Stability of the phosphonates and their esters during storage, by NMR; assay type: physicochemical; settings: trisodium salts
Description: Stability of the purified phosphonates and their esterified precursor was analyzed by NMR after storage under the inert (pure argon) or ambient (air) atmosphere and in water solutions. ^1H, ^13C and ^31P NMR spectra were recorded at 400, 100.6, and 161.9 MHz, respectively with a Bruker Avance 400 spectrometer. Chemical shifts were calculated using D2O or CDCl3 as reference standards for trisodium salts and triesters, respectively. The spectra of the phosphonates and their esters before and after storage are shown in Supplementary Figures 1, 2 correspondingly.

[2] = target: T1, OGDH (Rattus norvegicus, UniProt Q5XI78); test: OADH reaction catalyzed by the enzyme preparation from rat liver, high [OA] (low-affinity OA sites); assay type: biochemical; settings: for Amax: low-affinity sites
T1 construct: the tissue fractions with the complexes enriched to a degree allowing for a robust detection of the enzymatic activities, have been used; from tissue; host or cells: rat liver
T1 sequence (Q5XI78 41-1023): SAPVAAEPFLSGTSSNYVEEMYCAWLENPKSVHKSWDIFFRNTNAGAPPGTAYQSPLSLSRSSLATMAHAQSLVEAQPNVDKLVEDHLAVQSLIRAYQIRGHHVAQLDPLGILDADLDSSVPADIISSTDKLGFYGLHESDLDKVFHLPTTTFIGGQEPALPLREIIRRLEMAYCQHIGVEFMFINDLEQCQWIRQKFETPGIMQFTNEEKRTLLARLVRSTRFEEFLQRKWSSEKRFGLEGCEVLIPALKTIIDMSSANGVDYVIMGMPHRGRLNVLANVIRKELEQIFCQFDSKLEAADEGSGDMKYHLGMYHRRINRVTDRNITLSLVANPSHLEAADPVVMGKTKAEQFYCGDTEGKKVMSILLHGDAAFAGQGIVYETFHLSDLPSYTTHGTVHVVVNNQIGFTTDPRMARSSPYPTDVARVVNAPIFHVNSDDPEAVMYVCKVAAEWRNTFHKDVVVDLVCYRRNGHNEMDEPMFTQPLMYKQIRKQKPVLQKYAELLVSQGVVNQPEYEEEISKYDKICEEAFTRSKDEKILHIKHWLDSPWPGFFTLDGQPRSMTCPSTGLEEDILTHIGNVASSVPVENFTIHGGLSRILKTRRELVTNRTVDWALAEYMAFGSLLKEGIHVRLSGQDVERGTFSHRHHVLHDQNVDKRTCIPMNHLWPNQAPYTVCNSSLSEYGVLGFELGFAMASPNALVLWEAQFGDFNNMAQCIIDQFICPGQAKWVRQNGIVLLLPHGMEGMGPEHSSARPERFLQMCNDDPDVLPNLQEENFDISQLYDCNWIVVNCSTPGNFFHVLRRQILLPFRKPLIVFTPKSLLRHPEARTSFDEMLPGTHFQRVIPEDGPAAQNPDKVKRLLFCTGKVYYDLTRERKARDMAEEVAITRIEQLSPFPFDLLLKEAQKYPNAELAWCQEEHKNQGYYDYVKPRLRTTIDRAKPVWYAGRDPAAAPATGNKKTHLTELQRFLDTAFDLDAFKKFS
Description: Enzymes catalyzing OGDH and OADH reactions were enriched from rat hearts and livers using polyethylene glycol precipitation, as previously described (Artiukhov et al., [2020]).
(§1) The enzyme activities were assayed in the medium (pH 7.0) containing 50 mM MOPS, 1 mM ThDP, 1 mM MgCl2, 1 mM CaCl2, 1 mM dithiothreitol 0.15 mM Coenzyme A, 0.25 mM NAD^+ and various concentrations of 2-oxo substrates (0–10 mM OG or OA) and their phosphonate analogs (0–5,000 μM SP, GP, or AP). Reactions were started by addition of the enzyme preparations to the assay media. The amount of enzyme preparations (0.074 mg protein for the preparation from liver and 0.023 mg protein for the preparation from heart) were chosen to induce the lowest reliably measured reaction rate (ΔA340 = 0.001/min) at 0.01 mM OA without the phosphonates.
Reaction rates were calculated from linear parts of the product accumulation curves (up to 10 min, dependent on the reaction rate), excluding the initial region, where mixing the reagents and solubilization of the preparation affected the optical density.
Non-linear regression was used to approximate the experimental dependences of the reaction rates on the OG or OA concentration according to the Michaelis-Menten equation ( a=Amax*[S]/Km+[S] ) or its sum ( a=Amax*[S]/Km+[S]+Amax,2*[S]/Km,2+[S] ). The former equation describes one type of the active sites. […] The assumption was based on the presence of the two enzymes, OGDH and OADH, in the employed preparations.
The kinetic data were also analyzed by linear regression, using the known methods of the linearization of the Michaelis-Menten equation in the Lineweaver-Burk ( 1/a=1/Amax(1+Km/[S]) ) and Eadie-Hofstee ( a=Amax−Kmv/[S] ) coordinates. Due to the several orders of magnitude difference in the values of Km,1 and Km,2, the linear regression required separate analysis of the dependencies in the intervals of the low and high concentrations of 2-oxoadipate. The Km and Amax values obtained in independent experiments using the non-linear and linear regression analyses of the experimental data, were averaged and presented as Mean ± Standard Error of Mean.
(§2) To determine the inhibition constants (Ki), the effective values of Kmeff and Amaxeff , calculated from the hyperbolic or linear approximations as described above, were plotted against the concentration of the inhibitors ([I]). The linear regression of the equation Kmeff/Amaxeff=Km/Amax(1+[I]/Ki) , (Cornish-Bowden, [1979]) was applied to find the Intercept (Km/Amax) and Slope (Km/(Amax*Ki)) of a dependence. The values of Ki were determined as the ratio of the corresponding Intercepts to the Slopes. In the two-site model, the Ki(1) and Ki(2) were calculated separately from the linear approximations of Km,1eff/Amax,1eff vs. [I] and Km,2eff/Amax,2eff vs. [I] dependences, respectively. The standard errors of Ki were determined from means and standard errors of the Intercepts and the Slopes, using the previously described formula for standard deviation of a fraction (Bunik et al., [1999]). The Ki values obtained from the non-linear and linear regression analyses of the experimental data were averaged and presented as Mean ± Standard Error of Mean.

[3] = system: OGDH and OADH; test: Mechanism of inhibition of the OGDH and OADH reactions (effective Km and Amax vs inhibitor concentration); assay type: biochemical, rat; settings: vs 2-oxo substrate; cardiac or hepatic preparations; inhibitor up to 200 μM
Description: as §1, §2

[4] = high [OA] 0.1–10 mM, Michaelis-Menten, read-out: Ki, MM
[5] = high [OA], Eadie-Hofstee, read-out: Ki, EH
[6] = high [OA], Lineweaver-Burk, read-out: Ki, LB
[7] = high [OA], average, read-out: Ki, Average

Row | SMILES | stability upon the shelf storage [1] | Amax ([2]; [I] 0.5 µM) | Amax ([2]; [I] 2 µM) | Amax ([2]; [I] 10 µM) | Amax ([2]; [I] 50 µM) | Amax ([2]; [I] 200 µM) | Ki [2, 4] | Ki [2, 5] | Ki [2, 6] | Ki [2, 7] | primary mechanism of inhibition [3]
1 | O=C(O)CCCCC(=O)P(=O)(O)O [AP, adipoyl phosphonate] | high stability | 0.0084 ± 0.0002 µmol/min per mg of protein | 0.0085 ± 0.0002 µmol/min per mg of protein | 0.0090 ± 0.0003 µmol/min per mg of protein | 0.0096 ± 0.0002 µmol/min per mg of protein | 0.0097 ± 0.0010 µmol/min per mg of protein | 50000 ± 2000 nM | 47000 ± 2000 nM | 46000 ± 2000 nM | 47000 ± 1000 nM | competitive inhibition
2 | O=C(O)CCC(=O)P(=O)(O)O [SP, succinyl phosphonate] | high stability |  |  | 0.0080 ± 0.0004 µmol/min per mg of protein | 0.0074 ± 0.0002 µmol/min per mg of protein |  | 3700 ± 100 nM | 2500 ± 400 nM | 2100 ± 400 nM | 2800 ± 500 nM | competitive inhibition
3 | O=C(O)CCCC(=O)P(=O)(O)O [GP, glutaryl phosphonate] | high stability |  | 0.0088 ± 0.0004 µmol/min per mg of protein | 0.0093 ± 0.0005 µmol/min per mg of protein | 0.0056 ± 0.0001 µmol/min per mg of protein |  | 1400 ± 200 nM | 1300 ± 300 nM | 1300 ± 300 nM | 1300 ± 200 nM | competitive inhibition
